Structures are written as SMILES.

For one data set, the target named is T1, KCC2-S940A (Homo sapiens, UniProt Q9H2X9, S963A).
T1 construct: expressed in transfected cells; host or cells: HEK-293
T1 sequence (Q9H2X9 1-1116 isoform Q9H2X9-2 S940A): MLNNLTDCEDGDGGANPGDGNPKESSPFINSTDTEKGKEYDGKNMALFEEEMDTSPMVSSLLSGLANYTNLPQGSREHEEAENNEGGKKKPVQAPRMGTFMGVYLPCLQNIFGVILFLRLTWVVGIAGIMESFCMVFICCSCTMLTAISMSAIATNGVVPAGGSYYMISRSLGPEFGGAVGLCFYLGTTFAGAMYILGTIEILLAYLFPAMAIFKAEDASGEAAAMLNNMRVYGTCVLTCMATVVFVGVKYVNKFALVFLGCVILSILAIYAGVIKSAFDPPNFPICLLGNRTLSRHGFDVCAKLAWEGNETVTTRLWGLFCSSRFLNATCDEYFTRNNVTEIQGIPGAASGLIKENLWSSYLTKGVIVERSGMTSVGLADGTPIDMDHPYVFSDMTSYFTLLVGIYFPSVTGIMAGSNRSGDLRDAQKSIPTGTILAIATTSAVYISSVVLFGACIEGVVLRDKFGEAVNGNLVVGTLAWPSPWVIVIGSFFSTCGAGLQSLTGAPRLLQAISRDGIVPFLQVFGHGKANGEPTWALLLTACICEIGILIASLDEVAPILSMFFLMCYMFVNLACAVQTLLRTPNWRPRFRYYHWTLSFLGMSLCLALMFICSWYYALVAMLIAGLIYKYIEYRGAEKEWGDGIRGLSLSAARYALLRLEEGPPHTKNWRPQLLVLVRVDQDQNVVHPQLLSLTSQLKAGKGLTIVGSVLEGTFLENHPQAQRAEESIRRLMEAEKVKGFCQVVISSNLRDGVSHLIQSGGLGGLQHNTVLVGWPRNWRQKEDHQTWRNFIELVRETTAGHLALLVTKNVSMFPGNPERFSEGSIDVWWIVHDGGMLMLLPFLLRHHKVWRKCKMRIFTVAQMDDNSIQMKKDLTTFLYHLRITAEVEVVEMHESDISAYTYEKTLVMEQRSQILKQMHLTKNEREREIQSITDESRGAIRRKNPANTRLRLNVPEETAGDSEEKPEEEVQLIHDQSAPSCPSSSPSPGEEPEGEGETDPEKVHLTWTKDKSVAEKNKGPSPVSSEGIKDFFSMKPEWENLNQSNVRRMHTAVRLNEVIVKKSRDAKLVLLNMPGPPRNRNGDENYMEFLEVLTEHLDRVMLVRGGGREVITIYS
As to the kind of experiment: Tl+ flux assay, HEK-293 cells expressing KCC2-S940A. The format is cell-based. The procedure: FLIPR TI Flux assay. HEK-293 cells were washed with HBSS, and then incubated with loading buffer containing TI sensitive fluorescent dye (https://www.moleculardevices.com), 20 μM bumetanide 20 μM ouabain and 2.5 mM probenecid for 1 h at room temperature (RT) under control conditions or with drugs in the dark using a FlexStation 3 microplate reader (Molecular Devices) and imaged […] for 30 min. Stimulus buffer was added containing 5 mM K^+/0.5 mM Tl^+ and cells were imaged every 1.5 over a 190 second time course The initial rate Tl^+ uptake (Relative Fluorescence Units (RFU) per second) was determined following addition of the stimulus buffer as outlined previously (Conway et al., 2017, supra) (Lee et al., 2022, supra).
Several studies have shown that the activity and plasma membrane accumulation of KCC2 is potentiated via phosphorylation of S940, a process mediated by the activity of protein kinase C and protein phosphatase 1 (Lee et al., 2011, supra; Lee et al., J Biol Chem 282, 29777-29784 (2007); Moore et al., Proc. Natl. Acad. Sci. U.S.A. 115, 10166-10171 (2018); Moore et al., Trends Neurosci. 40, 555-571 (2017); Silayeva et al., Proc. Natl. Acad. Sci. U.S.A. 112, 3523-3528 (2015)). […] Compared to KCC2, effects on KCC3, KCC4, and NKCC1 were only seen at concentrations more than 35-fold that of KCC2 (>100 μM) (FIG. 1G).

The subject of data set [1] is panel of 144 protein kinases. Put plainly: SelectScreen protein kinase panel. The format is biochemical. Particulars: 144 protein kinases incl. PKC isoforms, OSR1, SPAK, WNK. The procedure: Aliquots of HEK-293 cells expressing KCC2 were exposed to 30 μM SSA, heated from 37-55° C. The remaining level of soluble native KCC2 at each temperature was measured by immunoblotting and normalized to the level seen at 37° C. which was given a value of 1. […] This panel included protein kinase C isoforms, OSR1, SPAK (STK39) and with-no-lysine kinases (WNK), all of which phosphorylate KCC2 on multiple residues to indirectly modify its activity (Kahle et al., 2013, supra; Smalley et al., 2020, supra).

A short description of data set [2]: PK study, brain and plasma levels by LC-MS/MS. The format is in vivo, mice. The procedure: PK studies. […] Plasma and brain samples were rapidly frozen on dry ice.
Drug accumulation in the brain was examined following SC injection (FIG. 4C; 50 mg/kg).

In data set [3] the test system is mice. Particulars: in vivo.
For data set [4], the system named is mice. Put plainly: Kainic acid (KA) induced SE, EEG recording, pretreatment. The format is in vivo. Conditions: 50 mg/kg SC pretreatment; vehicle 4.2±2.4×10^−6. An excerpt:
This model was chosen due to the similarities with patients undergoing SE, as KA-induced seizures become refractory to benzodiazepines (BDZs) within minutes (Betjemann and Lowenstein, Lancet Neurol 14, 615-624 (2015); Crawshaw and Cock, (2020a) [Seizure: Eur. J. Epilep. 75 (2020) 145-152] Seizure 80, 282; Lee et al., 2022, supra; Reddy and Kuruba, Int J Mol Sci 14, 18284-18318 (2013)).
EEG recordings and analysis. WT C57Bl/6J adult male mice (12 weeks) were anesthetized with isofluorane and implanted with EEG/EMG electrodes and allowed to recover for 7 days prior to experimentation. […] 2 h following KA administration mice were injected with a saturating concentration of diazepam (DZ) 10 mg/kg (IP) and recordings were extended for a further 60 min. […] LabChart 8 software was used for data analysis. […]
To provide quantitative insights on the effects of KA, raw EEG recordings were subject to Fast-Fourier transformation (8K FFT size, Hann (cosine-bell), 87.50% window overlap) for frequencies between 0-100 Hz 2 h after KA injection (Lee et al., 2022, supra).

In data set [5] the test system is mice. As to the kind of experiment: KA induced SE, EEG, injection directly into the hippocampus. The format is in vivo. Particulars: intrahippocampal pretreatment, DZ 2 h after KA. The procedure:
30 or 60 min later mice were injected with KA (20 mg/kg) and 2 h later with DZ as detailed above.

For data set [6], the system named is mice. As to the kind of experiment: KA induced ongoing SE, EEG, treatment 2 h after KA. The format is in vivo. Conditions: given IP 2 h after KA. The procedure:
EEG recordings and analysis. WT C57Bl/6J adult male mice (12 weeks) were anesthetized with isofluorane and implanted with EEG/EMG electrodes and allowed to recover for 7 days prior to experimentation. […] 2 h following KA administration mice were injected with a saturating concentration of diazepam (DZ) 10 mg/kg (IP) and recordings were extended for a further 60 min. […] LabChart 8 software was used for data analysis. Epileptiform activity was identified by changes in the amplitude of electrographic activity characterized by consistent changes in the power of the Fast Fourier transform (FFT) of the EEG and abnormal activity characterized by periods of rhythmic spiking lasting longer than 30 s (Moore et al., 2017, supra; Silayeva et al., 2015, supra; Sivakumaran et al., J. Neurosci. 35, 8291-8296 (2015)).
To evaluate the potential of KCC2 activators to terminate ongoing SE, the KA model described above was employed. Mice were injected with KA (20 mg/Kg; IP). […] Spectral data were then subjected to FFT and the total EEG power between 1-100 Hz of the 2 h following KA treatment (pre-drug) and 30 min following their injection (post-drug) were compared (FIG. 6B). In mice treated with DZ alone variable effects were observed, from large increases to modest reductions in EEG power, but these effects were not significant (FIG. 6C; pre=1.1±0.2×10^−6, post=4.4±7.4×10^−7 V^2, p=0.214, n=13-14 mice). […]

Data set [7] has as its system mice. As to the kind of experiment: TUNEL staining of hippocampal CA1 48 h after KA injection. The format is in vivo.
Description: To determine if KCC2 activators have an impact on the extent of neuronal injury, brain sections from mice that survived for 48 h after KA injection were subjected to Terminal deoxynucleotidyl transferase dUTP nick end (TUNEL) staining to visualize dead cells, and counterstained with DAPI. The number of TUNEL positive cells in the CA1 region of the hippocampus were then compared between treatment groups.

Consider `C[C@@H]1CN(c2nc3c(c(Nc4ccc(C5CCCCC5)cc4)n2)COC3)CCO1` [Compound A, (R)—N-(4-cyclohexylphenyl)-2-(2-methylmorpholino)-5,7-dihydrofuro[3,4-d]pyrimidin-4-amine], for which the “activity of KCC2-S940A construct” value at KCC2-S940A is “increased the activity of KCC2-S940A construct”. The “activity of the kinase panel” value in data set [1] is reported as “did not modify the activity”. Besides, in data set [2] (50 mg/kg SC), the “brain level 8 h later” value is listed as “maintained” and the “time of maximal concentration in the brain” value was determined as 4 h. For the same compound, the concentration at 30 min in data set [2] (mouse, in vivo, 25 mg/kg IV bolus, read-out: accumulation in brain and plasma, third value not assigned) was 11.2 µM. Moreover, the “effects on mouse behavior in the open field” value with mice [3] is “no gross effects on mouse behavior”. Also, the “total EEG power 2 h after KA (pre DZ)” value with mice [4] was 6.9±3.2×10^−7 V^2. In the data set with mice [5], the “effect of DZ on seizure parameters in pretreated mice” value is “DZ significantly reduced seizure parameters”.
Regarding `CN1C(=O)CN=C(c2ccccc2)c2cc(Cl)ccc21` [DZ, diazepam], the “mean time to suppression (EEG power reduced to 50%)” value with mice [6] was 32.5 ± 6.7 min. Further, the “TUNEL positive CA1 cells” value with mice [7] stood at 40.93±3.35 dead cells/ROI.

Values taken from patent publication US20260048063A1, “FUSED AMINO PYRIMIDINE COMPOUNDS FOR TREATMENT OF NEURODEGENERATIVE DISORDERS” (Ovid Therapeutics Inc., priority 2024, published 2026).
